Experimental data taken from PubChem BioAssay AID652161 (Sanford-Burnham Center for Chemical Genomics, 2013).
The source made the active and inactive calls.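 How the source made its calls: active means IC50 of 25 µM or lower, counted as toxic to worms; inactive means the rest.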

Test system: C. elegans VP596, manual health composite score, 20-22 h
Experiment: C. elegans worm health toxicity scoring, SAR follow-up, cytotoxicity control for SKN-1 inhibitor project, whole organism, strain VP596, composite health score (AID 652161)

SMILES	IC50
CCOc1cc(CNC2CCCC2)cc(Cl)c1OCc1ccc(F)cc1	> 64 µM (inactive)
c1ccc2oc(SCc3nc4ccccc4s3)nc2c1	13.9 µM
CSc1cccc(NC(=O)c2cccc3cccnc23)c1	47 µM (inactive)
Cc1ccc(-c2noc(-c3cccs3)n2)cc1	10.6 µM
COc1cc(CNC(C)c2ccccc2)cc(Br)c1OCc1ccc(F)cc1 (stereo not drawn)	> 64 µM (inactive)
Brc1ccc(CSc2nnc(-c3ccco3)o2)cc1	8.76 µM
Brc1ccc(-c2nc(-c3ccccc3)no2)o1	11.9 µM
Cc1ccc(N=C/C(C(=O)C(F)(F)F)=C(\O)c2ccco2)cc1Cl	27.2 µM (inactive)
CCc1ccc(-c2nc(-c3ccncc3)no2)cc1	10.6 µM
O=C(/C=C/c1ccccc1)Nc1ccc(CN2CCOCC2)cc1	> 64 µM (inactive)
Cc1ccc(Nc2nc(-c3cccs3)cs2)nc1	27.3 µM (inactive)
Cc1ccccc1-c1noc(-c2cccs2)n1	7.83 µM
COc1cc(CNC(C)(C)CO)cc(Br)c1OCc1ccc(Cl)cc1	56.3 µM (inactive)
O=C(/C=C/Nc1ccccc1F)c1cccs1	35.2 µM (inactive)
Fc1ccc(COc2ccc(-c3nnco3)cc2)c(Cl)c1	8.11 µM
Fc1ccc(COc2ccc(-c3nnco3)cc2)cc1	34.9 µM (inactive)
O=C(/C=C/Nc1ccc(F)cc1F)c1ccco1	24.1 µM
O=C(Nc1nc(-c2ccc(Cl)s2)cs1)c1cccs1	> 64 µM (inactive)
O=C(Nc1nc2c(ccc3ccccc32)s1)c1ccco1	20.3 µM
CCOC(=O)Nc1nc(-c2ccc(F)cc2F)cs1	22.9 µM

SMILES	IC50
Fc1ccc(-c2csc(Nc3ccccn3)n2)cc1	7.02 µM
O=C(Nc1nccs1)c1ccc2ccccc2n1	16 µM
COc1cc(CNC2CCCC2)cc(Cl)c1OCc1ccc(F)cc1	46.9 µM (inactive)
CCOc1ccc(-c2nc(-c3cccnc3)no2)cc1	8.88 µM
Clc1ccccc1-c1nnc(-c2ccccc2Cl)o1	20.9 µM
Clc1ccc(-c2nnc(-c3ccccc3)o2)c(Cl)c1	27.9 µM (inactive)
c1ccc(Nc2nc(-c3cccs3)cs2)nc1	14.9 µM
O=C(/C=C/Nc1ccc(F)c(F)c1)c1cccs1	> 64 µM (inactive)
O=C(Nc1nc(-c2ccccc2)cs1)c1cccs1	15 µM
CCOc1cc(CNCCSc2nnnn2C)cc(Br)c1OCc1ccc(F)cc1	16 µM
CCOC(=O)c1c(-c2ccc(-c3ccccc3)cc2)csc1NC(=O)CNCCN(C)C	> 64 µM (inactive)
c1ccc(SCc2cc(-c3ccccc3)no2)cc1	11.5 µM
O=C(/C=C/Nc1ccc(F)cc1F)c1cccs1	21.4 µM
Cc1oc(-c2ccc(-c3ccccc3)cc2)nc1CN(C)C1CCOC1 (stereo not drawn)	> 64 µM (inactive)
Fc1ccc(-c2csc(-c3ccncc3)n2)cc1	10.6 µM
O=C(/C=C/c1ccc(Br)cc1)c1ccc(NC2=NCCCS2)cc1	20.1 µM
Cc1ccc2nc(-c3ccc(NC(=S)NC4CC(C)(C)NC(C)(C)C4)cc3)sc2c1	62 µM (inactive)
Clc1ccc(Nc2nc(-c3cccs3)cs2)nc1	12.4 µM
O=C(/C=C/c1cccs1)c1ccc(Br)cc1	11.6 µM
CC(C)c1ccc(C(=O)Nc2ccc(CN3CCOCC3)cc2)cc1	14.7 µM

SMILES	IC50
CCOc1cc(CNC2CCCC2)cc(Cl)c1OCc1ccccc1	> 64 µM (inactive)
c1ccc(-c2csc(Nc3ccccn3)n2)cc1	6.56 µM
O=C(Nc1ccc(CN2CCOCC2)cc1)c1cc2ccccc2o1	35.3 µM (inactive)
c1ccc2sc(SCc3ccc(-c4nnco4)cc3)nc2c1	14.5 µM
O=C(/C=C/Nc1ccc(Br)cc1F)c1ccco1	14.8 µM
Cc1cc(OCc2cccc(Cl)c2)c(C)cc1CN1CCOCC1	21 µM
c1ccc(-c2nc(-c3ccncc3)no2)cc1	> 64 µM (inactive)
Brc1ccc(-c2nnc(-c3ccco3)o2)cc1	12.9 µM
Cc1ccc(CSc2nnc(-c3ccco3)o2)cc1	19.1 µM
Brc1ccc(CSc2nnc(-c3cccnc3)o2)cc1	25.2 µM (inactive)
O=C(/C=C/Nc1ccc(F)c(Cl)c1)c1ccco1	18.8 µM
O=C(Nc1nc(-c2ccc(Cl)s2)cs1)c1ccccc1	> 64 µM (inactive)
O=C(Nc1nc(-c2ccc(Cl)s2)cs1)c1ccco1	16.1 µM
Clc1ccccc1-c1nc(-c2ccncc2)no1	15.3 µM
c1ccc(-c2csc(-c3ccncc3)n2)cc1	23.9 µM
Clc1ccc(-c2nnc(-c3ccco3)o2)cc1	16.9 µM
Cc1nc2ccccc2cc1OCc1ccc(F)cc1	8.59 µM
COc1ccc(C(=O)Nc2nc(-c3cccs3)cs2)cc1	> 64 µM (inactive)
